US5358951A, “Angiotensin II receptor blocking 2, 3, 6 substituted quinazolinones” (American Cyanamid Company, priority 1993, dated 1994)

System: vasopressor response of angiotensin II
Test: AII Challenge: antagonism of angiotensin II vasopressor response;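 for Response Average Change: post-dose Angiotensin II-evoked rise in systolic blood pressure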
Assay type: in vivo
Conditions: for inhibition in vivo at 3 mg/kg / inhibition in vivo at 5 mg/kg: Rattus norvegicus
Method in brief: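 Conscious male SHR (16-20 weeks) with aortic and caval cannulae received angiotensin II at 0.05 and 0.1 ug/kg i.v. before and 30-300 min after compound dosing (i.v., i.p. or oral). Blockade is expressed as % of each rat's predose rise in systolic pressure.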

[1] = 1 mg/kg P.O., AII 0.05 mcg/kg IV, 60 min post dose
[2] = 1 mg/kg P.O., AII 0.05 mcg/kg IV, 90 min post dose
[3] = 1 mg/kg P.O., AII 0.05 mcg/kg IV, 120 min post dose
[4] = 1 mg/kg P.O., AII 0.05 mcg/kg IV, 180 min post dose
[5] = 1 mg/kg P.O., AII 0.05 mcg/kg IV, 240 min post dose
[6] = 1 mg/kg P.O., AII 0.1 mcg/kg IV, 60 min post dose
[7] = 1 mg/kg P.O., AII 0.1 mcg/kg IV, 90 min post dose
[8] = 1 mg/kg P.O., AII 0.1 mcg/kg IV, 120 min post dose
[9] = 1 mg/kg P.O., AII 0.1 mcg/kg IV, 180 min post dose
[10] = 1 mg/kg P.O., AII 0.1 mcg/kg IV, 240 min post dose
[11] = 5 mg/kg P.O., AII 0.05 mcg/kg IV, 60 min post dose
[12] = 5 mg/kg P.O., AII 0.1 mcg/kg IV, 60 min post dose

CCCCc1nc2ccc([C@@]3(C)C[C@@H]4CCCN4O3)cc2c(=O)n1Cc1ccc(-c2ccccc2-c2nnn[nH]2)cc1 (relative stereo) [Example 58, Cis-(+/-)-2-Butyl-6-(hexahydro-2-methylpyrrolo[1,2-1,2-b]isoxazol-2-yl) -3-[[2'-(1H-tetrazol-5-yl) [1,1'-biphenyl]-4-yl]methyl]-4(3H)-quinazolinone]
% Inhibition [1]: 62% | Response Average Change [1]: 16 mmHg | % Inhibition [2]: 68% | Response Average Change [2]: 13.5 mmHg | % Inhibition [3]: 67% | Response Average Change [3]: 14 mmHg | % Inhibition [4]: 82% | Response Average Change [4]: 7.5 mmHg | % Inhibition [5]: 82% | Response Average Change [5]: 7.5 mmHg | % Inhibition [6]: 37% | Response Average Change [6]: 30 mmHg | % Inhibition [7]: 44% | Response Average Change [7]: 26.5 mmHg | % Inhibition [8]: 53% | Response Average Change [8]: 22.5 mmHg | % Inhibition [9]: 56% | Response Average Change [9]: 21 mmHg | % Inhibition [10]: 68% | Response Average Change [10]: 15 mmHg | Response Average Change (3 mg/kg I.V., AII 0.05 mcg/kg IV, 30 min post dose): 0 mmHg | Response Average Change (3 mg/kg I.V., AII 0.05 mcg/kg IV, 60 min post dose): 5 mmHg | Response Average Change (3 mg/kg I.V., AII 0.05 mcg/kg IV, 90 min post dose): 2.5 mmHg | Response Average Change (3 mg/kg I.V., AII 0.05 mcg/kg IV, 120 min post dose): 5 mmHg | Response Average Change (3 mg/kg I.V., AII 0.05 mcg/kg IV, 180 min post dose): 6.5 mmHg | Response Average Change (3 mg/kg I.V., AII 0.05 mcg/kg IV, 240 min post dose): 7.5 mmHg | Response Average Change (3 mg/kg I.V., AII 0.1 mcg/kg IV, 30 min post dose): 10 mmHg | Response Average Change (3 mg/kg I.V., AII 0.1 mcg/kg IV, 60 min post dose): 4 mmHg | Response Average Change (3 mg/kg I.V., AII 0.1 mcg/kg IV, 90 min post dose): 2.5 mmHg | Response Average Change (3 mg/kg I.V., AII 0.1 mcg/kg IV, 120 min post dose): 10 mmHg | Response Average Change (3 mg/kg I.V., AII 0.1 mcg/kg IV, 180 min post dose): 6.5 mmHg | Response Average Change (3 mg/kg I.V., AII 0.1 mcg/kg IV, 240 min post dose): 4 mmHg | % Inhibition [11]: 94% | Response Average Change [11]: 2.5 mmHg | Response Average Change (5 mg/kg P.O., AII 0.05 mcg/kg IV, 120 min post dose): 5 mmHg | Response Average Change (5 mg/kg P.O., AII 0.05 mcg/kg IV, 300 min post dose): 1 mmHg | % Inhibition [12]: 100% | Response Average Change [12]: 0 mmHg | inhibition in vivo at 3 mg/kg (iv, 0.5 h, 3 mg/kg I.V., AII 0.05 mcg/kg IV, 30 min post dose): 100% | inhibition in vivo at 3 mg/kg (iv, 0.5 h, 3 mg/kg I.V., AII 0.1 mcg/kg IV, 30 min post dose): 78% | inhibition in vivo at 3 mg/kg (iv, 1 h, 3 mg/kg I.V., AII 0.1 mcg/kg IV, 60 min post dose): 91% | inhibition in vivo at 3 mg/kg (iv, 2 h, 3 mg/kg I.V., AII 0.1 mcg/kg IV, 120 min post dose): 78% | inhibition in vivo at 3 mg/kg (iv, 3 h, 3 mg/kg I.V., AII 0.05 mcg/kg IV, 180 min post dose): 83% | inhibition in vivo at 3 mg/kg (iv, 3 h, 3 mg/kg I.V., AII 0.1 mcg/kg IV, 180 min post dose): 86% | inhibition in vivo at 3 mg/kg (iv, 4 h, 3 mg/kg I.V., AII 0.05 mcg/kg IV, 240 min post dose): 81% | inhibition in vivo at 3 mg/kg (iv, 4 h, 3 mg/kg I.V., AII 0.1 mcg/kg IV, 240 min post dose): 91% | inhibition in vivo at 3 mg/kg (iv, […], 3 mg/kg I.V., AII 0.05 mcg/kg IV, 90 min post dose): 94% | inhibition in vivo at 3 mg/kg (iv, […], 3 mg/kg I.V., AII 0.1 mcg/kg IV, 90 min post dose): 94% | inhibition in vivo at 3 mg/kg (po, 0.5 h, 3 mg/kg P.O., AII 0.05 mcg/kg IV, 30 min post dose): 75% | inhibition in vivo at 5 mg/kg (po, 0.5 h, 5 mg/kg P.O., AII 0.05 mcg/kg IV, 30 min post dose): 90% | inhibition in vivo at 3 mg/kg (po, 1 h, 3 mg/kg P.O., AII 0.05 mcg/kg IV, 60 min post dose): 92% | inhibition in vivo at 3 mg/kg (po, 1 h, 3 mg/kg P.O., AII 0.1 mcg/kg IV, 60 min post dose): 67% | inhibition in vivo at 5 mg/kg (po, 1 h, 5 mg/kg P.O., AII 0.05 mcg/kg IV, 60 min post dose): 94% | inhibition in vivo at 5 mg/kg (po, 1 h, 5 mg/kg P.O., AII 0.1 mcg/kg IV, 60 min post dose): 100% | inhibition in vivo at 3 mg/kg (po, 2 h, 3 mg/kg P.O., AII 0.05 mcg/kg IV, 120 min post dose): 67% | inhibition in vivo at 3 mg/kg (po, 2 h, 3 mg/kg P.O., AII 0.1 mcg/kg IV, 120 min post dose): 91% | inhibition in vivo at 5 mg/kg (po, 2 h, 5 mg/kg P.O., AII 0.05 mcg/kg IV, 120 min post dose): 88% | inhibition in vivo at 3 mg/kg (po, 3 h, 3 mg/kg P.O., AII 0.05 mcg/kg IV, 180 min post dose): 75% | inhibition in vivo at 3 mg/kg (po, 3 h, 3 mg/kg P.O., AII 0.1 mcg/kg IV, 180 min post dose): 74% | inhibition in vivo at 5 mg/kg (po, 3 h, 5 mg/kg P.O., AII 0.05 mcg/kg IV, 180 min post dose): 75% | inhibition in vivo at 5 mg/kg (po, 3 h, 5 mg/kg P.O., AII 0.1 mcg/kg IV, 180 min post dose): 89% | inhibition in vivo at 5 mg/kg (po, 4 h, 5 mg/kg P.O., AII 0.05 mcg/kg IV, 240 min post dose): 93% | inhibition in vivo at 3 mg/kg (po, 5 h, 3 mg/kg P.O., AII 0.05 mcg/kg IV, 300 min post dose): 57% | inhibition in vivo at 5 mg/kg (po, 5 h, 5 mg/kg P.O., AII 0.05 mcg/kg IV, 300 min post dose): 98% | inhibition in vivo at 5 mg/kg (po, 5 h, 5 mg/kg P.O., AII 0.1 mcg/kg IV, 300 min post dose): 84% | inhibition in vivo at 3 mg/kg (po, […], 3 mg/kg P.O., AII 0.05 mcg/kg IV, 90 min post dose): 75% | inhibition in vivo at 5 mg/kg (po, […], 5 mg/kg P.O., AII 0.05 mcg/kg IV, 90 min post dose): 88% | inhibition in vivo at 5 mg/kg (po, […], 5 mg/kg P.O., AII 0.1 mcg/kg IV, 90 min post dose): 84%
